Experimental data reported in US12612392B2, “Compound, pharmaceutical compositions containing same, synthesis method therefor and use thereof” (SHENZHEN ZHONGGE BIOLOGICAL TECHNOLOGY CO., LTD., priority 2022, dated 2026).

Legend:
[1] = target: T1, CYP2C19 (Homo sapiens, UniProt P33261); test: P450 enzyme inhibition, CYP2C19; type: in vitro ADME; conditions: human liver microsome, substrate Mephenytoin
T1 construct: A phosphate buffer solution of liver microsomes was prepared; from tissue; host or cells: human liver microsomes
Description: (§1) A phosphate buffer solution of liver microsomes was prepared. 169 μL of the phosphate buffer solution of liver microsomes and 1 μL of working solutions of various concentrations of test compounds or positive control compounds were added to a 96-well plate. The culture plate was placed in a water bath and pre-heated at 37° C. for 15 minutes. After the incubation, 10 μL of substrates were added to the culture plate (1 μL of substrates and 9 μL of the K-Mg buffer solution were added to the plate for CYP3A4-T). The incubation mixture was mixed on a rotating mixer for 10 seconds, and then 20 μL of a 10 mM NADPH solution was added to start the reaction at a final concentration of 1 mM. The experiment was repeated twice. At the predetermined time points listed in Table 4, the reaction was quenched by adding 400 μL of the quenching solution (cold ACN containing 500 nM mephetedrine and 10 nM terfenadine). Centrifugation was performed at 3220 g for 50 minutes at 4° C. 100 μl of the supernatant was transferred to a new plate. The supernatant was diluted with 100 μL of pure water. The mixture was mixed evenly, and the sample was analyzed by UPLC-MS/MS.

[2] = Kinetic solubility evaluation; type: physicochemical; conditions: kinetic from dmso stock, 37° C.
Description: The test compounds were dissolved in DMSO to prepare 10 mM stock solutions. 8.71 g of K2HPO4 was added to 500 mL of deionized water to prepare a 100 mM K2HPO4 solution. 2.05 g of potassium dihydrogen phosphate was added to 150 ml of deionized water to prepare a 100 mM potassium dihydrogen phosphate solution. 405 mL of 100 mM K2HPO4 and 95 mL of 100 mM KH2PO4 were mixed, and the mixed solution was adjusted to pH 7.4 by a 100 mM K2HPO4/KH2PO4 solution. 10.41 g of FaSSIF buffer concentrate was added to 240.3 g of deionized water to prepare a buffer solution (fasted-state simulated intestinal fluid, pH=6.5). 4.071 g of FeSSIF buffer concentrate was added to 45.97 g of deionized water to prepare a buffer solution (fed-state simulated intestinal fluid, pH=5.0).
[…] (for PBS) or 37° C. (for others). After the incubation, the solution was transferred to a filter plate. All samples were filtered. 5 μL of the filtrate was added to 5 μL of DMSO, and 490 μl of an aqueous acetonitrile solution containing the internal standard (1:1), and the mixture was mixed evenly. Based on the properties of the compound and its response in mass spectrometry, dilution with an aqueous acetonitrile solution containing the internal standard (1:1) was performed. The dilution factor was varied according to the solubility value and UPLC-MS/MS signal response.

[3] = Pharmacokinetic evaluation in mice; type: in vivo
Description: The test compounds were dissolved in vehicles to prepare clear solutions or homogeneous suspensions. […] Blood samples were collected at 0.083 h, 0.25 h, 0.5 h, 1 h, 2 h, 4 h, 8 h, and 24 h after the intravenous administration, and at 0.25 h, 0.5 h, 1 h, 2 h, 4 h, 6 h, 8 h, and 24 h after the oral administration. Plasma samples were centrifuged, and the supernatant was collected to prepare samples, which were then quantitatively analyzed by LC/MS/MS.

[4] = target: T2, CYP2D6 (Homo sapiens, UniProt P10635); test: P450 enzyme inhibition, CYP2D6; type: in vitro ADME; conditions: human liver microsome, substrate Dextromethorphan
T2 construct: A phosphate buffer solution of liver microsomes was prepared; from tissue; host or cells: human liver microsomes
Description: as §1

[5] = target: T3, CYP3A4 (Homo sapiens, UniProt P08684); test: P450 enzyme inhibition, CYP3A4; type: in vitro ADME; conditions: human liver microsome, substrate Testosterone
T3 construct: A phosphate buffer solution of liver microsomes was prepared; from tissue; host or cells: human liver microsomes
Description: as §1

[6] = target: T4, CYP1A2 (Homo sapiens, UniProt P05177); test: P450 enzyme inhibition, CYP1A2; type: in vitro ADME; conditions: human liver microsome, substrate Phenacetin
T4 construct: A phosphate buffer solution of liver microsomes was prepared; from tissue; host or cells: human liver microsomes
T4 sequence (P05177 1-516): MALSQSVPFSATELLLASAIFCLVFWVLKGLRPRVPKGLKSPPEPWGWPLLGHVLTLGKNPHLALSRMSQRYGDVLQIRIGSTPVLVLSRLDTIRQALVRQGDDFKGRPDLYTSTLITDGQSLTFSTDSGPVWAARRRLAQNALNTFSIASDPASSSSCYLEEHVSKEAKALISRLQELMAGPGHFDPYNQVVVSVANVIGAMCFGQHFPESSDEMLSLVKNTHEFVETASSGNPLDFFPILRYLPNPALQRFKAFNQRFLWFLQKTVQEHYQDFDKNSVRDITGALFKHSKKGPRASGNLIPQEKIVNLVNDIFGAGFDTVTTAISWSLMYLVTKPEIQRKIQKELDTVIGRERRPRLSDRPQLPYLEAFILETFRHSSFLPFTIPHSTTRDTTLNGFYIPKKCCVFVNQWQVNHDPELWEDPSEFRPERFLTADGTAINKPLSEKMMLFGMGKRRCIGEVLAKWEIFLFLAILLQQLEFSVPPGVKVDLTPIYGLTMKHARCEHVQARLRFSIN
Description: as §1

[7] = Cell membrane permeability (A to B / B to A, efflux ratio); type: in vitro ADME
Description: The test compounds were diluted from 10 mM stock solutions to a concentration of 10 μM using the transport buffer (HBSS+BSA) and applied to the apical or basolateral side of the cell monolayer. After the incubation at 37° C., 5% CO2 and 95% relative humidity for 120 minutes, the permeability of the test compounds in the A to B direction or the B to A direction was tested in duplicate. In addition, the efflux ratio of each compound was determined. The test substances and reference substances were quantitatively analyzed by the LC-MS/MS method based on the analyte/IS peak area ratio.

T1 sequence (P33261 whole entry): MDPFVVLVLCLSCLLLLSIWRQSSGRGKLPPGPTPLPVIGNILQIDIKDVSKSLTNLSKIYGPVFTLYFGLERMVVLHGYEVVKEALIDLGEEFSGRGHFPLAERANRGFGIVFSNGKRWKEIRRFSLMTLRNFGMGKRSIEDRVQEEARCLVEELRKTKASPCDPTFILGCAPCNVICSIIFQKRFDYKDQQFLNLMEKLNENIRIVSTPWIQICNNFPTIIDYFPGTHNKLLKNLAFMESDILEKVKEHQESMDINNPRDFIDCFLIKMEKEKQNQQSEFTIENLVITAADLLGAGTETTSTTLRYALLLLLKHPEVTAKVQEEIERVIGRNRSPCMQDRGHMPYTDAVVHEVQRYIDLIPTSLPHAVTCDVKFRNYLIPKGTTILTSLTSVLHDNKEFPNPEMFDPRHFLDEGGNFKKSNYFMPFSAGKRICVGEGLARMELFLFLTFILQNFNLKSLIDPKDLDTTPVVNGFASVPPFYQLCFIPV
T3 sequence (P08684 whole entry): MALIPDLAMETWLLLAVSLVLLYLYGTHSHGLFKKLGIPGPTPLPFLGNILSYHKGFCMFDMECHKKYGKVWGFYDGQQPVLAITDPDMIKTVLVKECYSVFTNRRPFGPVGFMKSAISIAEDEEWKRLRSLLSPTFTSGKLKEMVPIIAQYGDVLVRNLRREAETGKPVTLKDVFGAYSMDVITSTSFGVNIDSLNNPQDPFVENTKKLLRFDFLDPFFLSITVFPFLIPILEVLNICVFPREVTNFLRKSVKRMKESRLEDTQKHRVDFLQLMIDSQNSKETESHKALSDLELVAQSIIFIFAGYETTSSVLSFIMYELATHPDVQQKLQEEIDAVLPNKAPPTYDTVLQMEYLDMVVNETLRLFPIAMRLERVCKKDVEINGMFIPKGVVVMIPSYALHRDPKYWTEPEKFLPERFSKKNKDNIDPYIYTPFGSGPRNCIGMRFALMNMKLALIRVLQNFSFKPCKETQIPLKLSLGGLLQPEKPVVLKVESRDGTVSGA
T2 sequence (P10635 whole entry): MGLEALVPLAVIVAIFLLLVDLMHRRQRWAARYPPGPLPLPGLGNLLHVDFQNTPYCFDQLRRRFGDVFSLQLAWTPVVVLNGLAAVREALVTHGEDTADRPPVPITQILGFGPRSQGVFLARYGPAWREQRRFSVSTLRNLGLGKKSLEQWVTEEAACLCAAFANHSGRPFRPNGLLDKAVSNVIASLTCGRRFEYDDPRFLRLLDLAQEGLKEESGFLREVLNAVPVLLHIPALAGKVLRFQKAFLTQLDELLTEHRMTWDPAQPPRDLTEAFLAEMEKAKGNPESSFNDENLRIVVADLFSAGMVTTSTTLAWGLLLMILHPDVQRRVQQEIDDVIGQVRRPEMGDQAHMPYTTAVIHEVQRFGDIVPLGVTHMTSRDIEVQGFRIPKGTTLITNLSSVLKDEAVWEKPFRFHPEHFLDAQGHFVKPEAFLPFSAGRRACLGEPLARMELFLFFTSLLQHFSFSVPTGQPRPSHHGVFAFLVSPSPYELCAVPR

Compound `O=C(COc1ccc(Cl)c(F)c1)N[C@H]1CC[C@H](c2nnc(N3CC(OC(F)(F)F)C3)o2)CC1` [Compound 6] has an IC50 [1] of over 10 µM, a solubility at 1.5 h ([2]; FaSSIF buffer (fasted-state simulated intestinal fluid), fassif, fasted-state simulated intestinal fluid (pH=6.5)) of over 10 µg/mL and a solubility at 1.5 h ([2]; FeSSIF buffer (fed-state simulated intestinal fluid), fessif, fed-state simulated intestinal fluid (pH=5.0)) of over 80 µg/mL. The “pharmacokinetic properties in mice” value ([3]; Cl, T1/2, Cmax, AUC, F) was “excellent pharmacokinetic properties in mice”, the AUC(0-inf) ([3]; plasma, mouse IV (1 mg/kg)) was 11.4 µg·h/mL and the C0 ([3]; plasma, mouse IV (1 mg/kg)) was 1240 ng/mL. For the same compound, the clearance ([3]; plasma, mouse IV (1 mg/kg)) was 1.46 mL/min/kg, the half-life ([3]; plasma, mouse IV (1 mg/kg)) was 6.35 h and the Vd ([3]; plasma, mouse IV (1 mg/kg), read-out: Vss) was 0.707 L/kg. The AUC(0-inf) ([3]; plasma, mouse PO (30 mg/kg)) was 516 µg·h/mL, the Cmax ([3]; plasma, mouse PO (30 mg/kg)) was 48000 ng/mL and the Tmax ([3]; plasma, mouse PO (30 mg/kg)) was 3.33 h. For the same compound, the half-life ([3]; plasma, mouse PO (30 mg/kg)) was 3.11 h, the bioavailability ([3]; plasma, mouse PO (30 mg/kg) vs IV (1 mg/kg)) was 161% and the IC50 [4] was over 30 µM. It also gave an IC50 [5] of over 30 µM, an IC50 [6] of over 10 µM and an efflux ratio at 120 min, 10 µM [7] of 0.71. For the same compound, the Papp A→B at 120 min, 10 µM ([7]; 37° C.) was 25.8 ×10⁻⁶ cm/s and the Papp B→A at 120 min, 10 µM ([7]; 37° C.) was 18.4 ×10⁻⁶ cm/s.
